Where a name gives a salt, the structure may show the parent alone.
What was measured:
[1] = not told; cited from earlier work
[2] = test system: lipid peroxidation reaction in liposomes (Fe^2+ system); assay: NBD-TEEPO assay in artificial lipid membranes, Fe2+ system; assay type: biochemical; conditions: FeSO4 1 mM, Eda 0-20 μM, after 60 minutes
Procedure: (§1) Probes (NBD-TEEPO compound) (5.0 μM) and liposomes (2.5 mg/mL Egg PC, 0.1 mg/mL DCP) were mixed in phosphate buffer (10 mM, pH 7.4, 0.5% DMSO, 0.5% acetonitrile) at 37° C. AAPH (0-20 mM) or FeSO4 (0-2.0 mM) was added to the mixture, and the lipid peroxidation reaction was started. After 40 minutes in the AAPH system or after 60 minutes in the Fe^2+ system, the fluorescence intensity was measured at an excitation wavelength of 470 nm and a fluorescence wavelength of 530 nm.

HepG2 cells [3] = assay: Secondary screening, Core Library (MTT assay); assay type: cell-based, human; conditions: 50 μM compound, 100 μM AA or tBHP, 24 hours
Procedure: As a cell-based screening for examining the cell death inhibitory activity, an assay using human hepatoma-derived HepG2 cells and AA and tBHP as radical initiators is performed, and the cell viability is measured. The activity value is determined from the cell viability value based on the following expression: Activity value=100(ViabilitySample−ViabilityControl(+))/(ViabilityControl(−)−ViabilityControl(+)) • ViabilitySample: Cell viability for with reaction initiator and with each compound (n=1) • ViabilityControl(+): Cell viability for with reaction initiator and with each compound • ViabilityControl(−): Cell viability for without reaction initiator and without each compound
For the compounds, 10 mM 100% DMSO solutions (dispensed at 5.0 µL/well) were provided from Drug Discovery Initiative, the University of Tokyo. 495 μL of DMEM medium for measurement was added, and 1.0% DMSO solution containing 100 μM of the compound was prepared. This solution was dispensed by 80 μL with Biomek NXP into a measuring plate on which cells were seeded in advance. To the test compound (100 μM 1.0% DMSO), 64 μL of DMEM medium, 16 μL of PBS in which AA (1000 μM, 5.0% ethanol) or tBHP (1000 μM) was dissolved were manually dispensed. The final concentration was 5.0 μM NBD-TEEPO compound, 50 μM test compound, and 100 μM AA or tBHP in DMEM medium (0.5% DMSO, 0.5% acetonitrile). After 24 hours, the medium was exchanged, and MTT solution (0.5 mg/mL, 0.5% DMSO) was added. Then, cells were incubated for 24 hours, and the solution was removed. 100 μL of DMSO was added, and the absorbance at 630 nm was measured. The cell viability was calculated according to the expression described herein, with regarding the case without AA or tBHP as 100%.

HepG2 cells [4] = assay: Tertiary screening, Core Library (NBD-TEEPO assay); assay type: cell-based, human; conditions: 50 μM compound, 200 μM AA or 300 μM tBHP
Procedure: The Core Library of Drug Discovery Initiative, the University of Tokyo, includes structural analogs for each compound. Then, secondary screening was also performed for structural analog compounds for each candidate compound in the same manner as Example 13 and the activity values were evaluated.
(§2) Specifically, the nine hit compounds, Compound Nos. 7, 19, 39, 48, 52, 64, 73, 78, 80, of the secondary screening had 5, 2, 4, 6, 6, 5, 5, 10, 2 structural analogs, respectively, thus, a total 45 structural analogs were taken. Then, including the original 9 compounds, a total 54 compounds were subjected to tertiary screening, and the activity values were calculated in the same manner.
(§3) For the evaluation of cytotoxicity, 50 μM antioxidant was added to HepG2 cells in DMEM medium (0.5% DMSO), and after incubation at 37° C. for 72 hours, the cell viability was measured. • 4) The activity values of the two-added systems in each of the assay using NBD-TEEPO and the MTT assay were plotted (FIG. 15C and FIG. 16C).

HepG2 cells [5] = assay: Tertiary screening, Core Library (MTT assay); assay type: cell-based, human; conditions: 50 μM compound, 100 μM AA or tBHP, 24 hours
Procedure: as §2, with “manner. […]” for “manner.”

HepG2 cells [6] = assay: Secondary screening, Core Library (NBD-TEEPO assay); assay type: cell-based, human; conditions: 50 μM compound, 200 μM AA (45 minutes) or 300 μM tBHP (60 minutes); high activity values in both systems
Procedure: In the screening by the cell-based assay method, activity values were determined from the values of fluorescence intensity measured in each screening using AA or tBHP as a reaction initiator, based on the following expression: Activity value=100(AUCSample−AUCBackground)/(AUCControl−AUCBackground) • AUCSample: Area under the curve calculated from the fluorescence intensity for with reaction initiator and with each compound (n=1) • AUCControl: Area under the curve calculated from fluorescence intensity for with reaction initiator and without each compound • AUCBackground: Area under the curve calculated from fluorescence intensity for without reaction initiator and without each compound
For the compounds, 10 mM 100% DMSO solutions (dispensed at 5.0 µL/well) were provided from Drug Discovery Initiative, the University of Tokyo. 495 μL of DMEM medium for measurement was added, and a 1.0% DMSO solution containing 100 μM of the compound was prepared. This solution was dispensed by 80 μL with Biomek NXP into a measuring plate on which cells were seeded in advance. To the test compound (100 μM 1.0% DMSO), 64 μL of DMEM medium (1.25% acetonitrile) containing 12.5 M NBD-TEEPO compound, and 16 μL of PBS in which AA (2000 μM, 5.0% ethanol) or tBHP (3000 μM) was dissolved were manually dispensed. The final concentration was 50 μM test compound and 200 μM AA or 300 μM tBHP in DMEM medium (0.5% DMSO, 0.5% acetonitrile).
The reaction mixture was mixed at 37° C., and the fluorescence intensity at an excitation wavelength of 470 nm and a fluorescence wavelength of 530 nm was measured over time every 3 minutes. The AUC was calculated from the fluorescence intensity for 45 minutes in the AA-added system or 60 minutes in the tBHP-added system, and the activity value of each test compound was calculated according to the expression described herein.

HepG2 cells [7] = assay: Cytotoxicity evaluation at tertiary screening (MTT, compound alone); assay type: cell-based; conditions: 50 μM compound alone, 72 hours
Procedure: To 1.0×10^4 HepG2 cells, 50 μM compound were added, and cell viability after 72 hours was measured by an MTT assay.
as §3

HepG2 cells [8] = assay: Intracellular lipid peroxidation inhibition by antioxidants (NBD-TEEPO assay); assay type: cell-based, human; conditions: 200 μM AA or 300 μM tBHP, 50 μM antioxidant, 45 minutes
Procedure: Human hepatoma cells (HepG2 cells) were cultured with DMEM medium (containing 10% FBS, 1% Penicillin-Streptomycin and 1×MEM non-essential amino acids) in a CO2 incubator (37° C., 5% CO2). Passaging was performed when 60-70% subconfluent state was reached. DMEM media (phenol red free, containing 1% Penicillin-Streptomycin) was used for various measurements. HepG2 cells were seeded in a 96-well plate at 10,000 cells/well. The cells were incubated for 24 hours to adhere. AA (200 μM) or tBHP (0 to 300 μM), antioxidant (50 μM), and probe (5.0 μM) were added to the cells in DMEM medium (0.5% DMSO, 0.5% acetonitrile), and after 45 minutes, the fluorescence intensity was measured at an excitation wavelength of 470 nm and a fluorescence wavelength of 530 nm.

[9] = test system: lipid peroxidation reaction in liposomes (AAPH system); assay: NBD-TEEPO assay in artificial lipid membranes, AAPH system; assay type: biochemical; conditions: AAPH 20 mM, AsA 0-20 μM, after 40 minutes
Procedure: as §1

Structure (SMILES)	lipid peroxidation inhibitory effects (HepG2 cells [4])	cell death inhibitory effects (HepG2 cells [5])	other results
CN1CC[C@]2(C)c3cc(O)ccc3N(C)[C@H]12 [Compound W, (−)-eseroline fumarate]			permeability to blood-retinal barrier (BRB) [1]: highly permeable
CC1=NN(c2ccccc2)C(=O)C1 [Eda, Edaravone]			inhibition of NBD-TEEPO fluorescence increase [2]: inhibited the fluorescence increase concentration-dependently
CN(C1CC(C)(C)N(O)C(C)(C)C1)S(=O)(=O)CC12CCC(CC1=O)C2(C)C (centres unmarked) [Compound 39, 1-(7,7-Dimethyl-2-oxobicyclo[2.2.1]heptan-1-yl)-N-(1-hydroxy-2,2,6,6-tetramethylpiperidin-4-yl)-N-methylmethanesulfonamide]			inhibition rates (cell death inhibition) in both AA-added and tBHP-added systems (HepG2 cells [3]): high inhibition rates in both systems
Nc1ccc2c(c1)CCN2c1ccc(OC(F)(F)F)cc1 [Compound 78, 1-(4-(Trifluoromethoxy)phenyl)indolin-5-amine]	high	high	inhibition rates (cell death inhibition) in both AA-added and tBHP-added systems (HepG2 cells [3]): high inhibition rates in both systems
Cc1cc(C)cc(-n2ccc3ccc(N)cc32)c1 [Compound 78-3, 1-(3,5-Dimethylphenyl)-1H-indol-6-amine]	high	high	
COc1cc(NS(C)(=O)=O)ccc1Nc1c2ccc(C)cc2nc2c1[nH]c1ccccc12 [Compound 80, N-(3-Methoxy-4-((3-methyl-1-10H-indolo[3,2-b]quinolin-11-yl)amino)phenyl)methanesulfonamide]	highest		activity values (lipid peroxidation inhibition) in both AA-added and tBHP-added systems (HepG2 cells [6]): hit compounds; cytotoxicity (HepG2 cells [7]): extremely high
COC(=O)c1ccc(Nc2ccc(OC)cc2)c(N)c1 [Compound 52-1, Methyl 3-amino-4-((4-methoxyphenyl)amino)benzoate]	high	high	
Cc1cc(C)cc(N2CCc3ccc(N)cc32)c1 [Compound 78-4, 1-(3,5-Dimethylphenyl)indolin-6-amine]	high	high	
Nc1ccc2c(ccn2-c2ccc(OC(F)(F)F)cc2)c1 [Compound 78-8]	high	high	
CSc1ccc(-n2ccc3cc(N)ccc32)cc1 [Compound 78-6, 1-(4-(Methylthio)phenyl)-1H-indol-5-amine]	high	high	
COC(=O)c1ccc(Nc2cccc(OC)c2)c(N)c1 [Compound 52-3, Methyl 3-amino-4-((3-methoxyphenyl)amino)benzoate]	high	high	
Oc1cc(O)c2c(c1)O[C@H](c1ccc(O)c(O)c1)[C@H](O)C2 [Catechin, (−)-epicatechin]			inhibitory effect on AA- and tBHP-induced fluorescence increase (HepG2 cells [8]): strongest inhibitory effect
COc1ccc(-n2ccc3cc(N)ccc32)cc1 [Compound 78-5, 1-(4-Methoxyphenyl)-1H-indol-5-amine]	high	high	
O=C1O[C@H]([C@@H](O)CO)C(O)=C1O [AsA, ascorbic acid]			inhibition of NBD-TEEPO fluorescence increase [9]: inhibited the fluorescence increase concentration-dependently
C/C(=N/Nc1nnc(Nc2ccccc2Cl)s1)c1ccccn1 [Compound 19]			inhibition rates (cell death inhibition) in both AA-added and tBHP-added systems (HepG2 cells [3]): high inhibition rates in both systems
COc1cc(/C=C/c2ccc3cccc([N+](=O)[O-])c3n2)cc(OC)c1O [Compound 48, 2,6-Dimethoxy-4-(2-(8-nitroquinolin-2-yl)vinyl)phenol]			activity values (lipid peroxidation inhibition) in both AA-added and tBHP-added systems (HepG2 cells [6]): hit compounds
NC(=O)c1cccc(-c2ccc3nc(-c4cccc(OCCO)c4)c(NCCN4CCOCC4)n3c2)c1 [Compound 73, 3-(2-(3-(2-Hydroxyethoxy)phenyl)-3-((2-morpholinoethyl)amino)imidazo[1,2-a]pyridin-6-yl)benzamide]			inhibition rates (cell death inhibition) in both AA-added and tBHP-added systems (HepG2 cells [3]): high inhibition rates in both systems
COC(=O)c1ccc(Nc2ccccc2)c(N)c1 [Compound 52, Methyl 3-amino-4-(phenylamino)benzoate]	high	high	inhibition rates (cell death inhibition) in both AA-added and tBHP-added systems (HepG2 cells [3]): high inhibition rates in both systems
CN(C)c1cc2c(cc1N)-c1ccccc1C2 [Compound 64, N^2,N^2-Dimethyl-9H-fluorene-2,3-diamine]			activity values (lipid peroxidation inhibition) in both AA-added and tBHP-added systems (HepG2 cells [6]): hit compounds
COC(=O)c1ccc(NCc2ccccc2)c(N)c1 [Compound 52-4, Methyl 3-amino-4-(benzylamino)benzoate]	high	high	
CC(Nc1ccc(Nc2ccccc2)cc1)C(=O)Nc1ccc(S(N)(=O)=O)cc1 (centres unmarked) [Compound 7, 2-((4-(Phenylamino)phenyl)amino)-N-(4-sulfamoylphenyl)propanamide]			activity values (lipid peroxidation inhibition) in both AA-added and tBHP-added systems (HepG2 cells [6]): hit compounds
